Each block holds one molecule with its values, some of them ahead of it.
Experiments:
[1] = Ratio of Vmax to Km for drug metabolism in human intestinal microsomes assessed as formation of scutellarein-6-O-glucuronide after 7 mins by HPLC/UV analysis; assay type: ADME, Intestine, Microsome
[2] = molecular target: T1, UDP-glucuronosyltransferase 1A1 (Homo sapiens, UniProt P22309); experiment: Drug metabolism assessed as human recombinant UGT1A1-mediated formation of scutellarein-7-O-glucuronide after 25 mins by HPLC/UV analysis; assay type: ADME
T1 sequence (P22309 whole entry): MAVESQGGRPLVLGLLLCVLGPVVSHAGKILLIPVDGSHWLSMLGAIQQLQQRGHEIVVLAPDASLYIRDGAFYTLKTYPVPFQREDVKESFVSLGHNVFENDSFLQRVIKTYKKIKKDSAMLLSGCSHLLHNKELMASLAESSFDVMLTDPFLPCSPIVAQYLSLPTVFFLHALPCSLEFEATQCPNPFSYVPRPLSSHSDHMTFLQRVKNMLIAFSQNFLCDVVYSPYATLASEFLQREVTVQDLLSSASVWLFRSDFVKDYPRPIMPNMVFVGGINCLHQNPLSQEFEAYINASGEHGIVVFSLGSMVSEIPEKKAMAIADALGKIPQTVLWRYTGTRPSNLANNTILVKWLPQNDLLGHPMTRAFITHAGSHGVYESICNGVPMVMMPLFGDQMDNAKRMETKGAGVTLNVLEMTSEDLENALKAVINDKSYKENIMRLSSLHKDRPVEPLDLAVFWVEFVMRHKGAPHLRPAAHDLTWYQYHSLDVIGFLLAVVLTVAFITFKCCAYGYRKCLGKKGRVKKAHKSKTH

[3] = Drug metabolism in rat intestinal microsomes assessed as formation of scutellarein-7-O-glucuronide after 7 mins by HPLC/UV analysis; assay type: ADME, Intestine, Microsome
Liver microsome [4] = experiment: Ratio of Vmax to Km for drug metabolism in rat liver microsomes assessed as formation of scutellarein-7-O-glucuronide after 7 mins by HPLC/UV analysis; assay type: ADME
Liver microsome [5] = experiment: Ratio of Vmax to Km for drug metabolism in human liver microsomes assessed as formation of scutellarein-7-O-glucuronide after 7 mins by HPLC/UV analysis; assay type: ADME
Liver microsome [6] = experiment: Ratio of Vmax to Km for drug metabolism in human liver microsomes assessed as formation of scutellarein-6-O-glucuronide after 7 mins by HPLC/UV analysis; assay type: ADME
Liver microsome [7] = experiment: Ratio of Vmax to Km for drug metabolism in rat liver microsomes assessed as formation of scutellarein-6-O-glucuronide after 7 mins by HPLC/UV analysis; assay type: ADME
Liver microsome [8] = experiment: Drug metabolism in human liver microsomes assessed as formation of scutellarein-6-O-glucuronide after 7 mins by HPLC/UV analysis; assay type: ADME
[9] = Ratio of Vmax to Km for drug metabolism in rat intestinal microsomes assessed as formation of scutellarein-7-O-glucuronide after 7 mins by HPLC/UV analysis; assay type: ADME, Intestine, Microsome
[10] = Drug metabolism in human intestinal microsomes assessed as formation of scutellarein-7-O-glucuronide after 7 mins by HPLC/UV analysis; assay type: ADME, Intestine, Microsome
[11] = Ratio of Vmax to Km for drug metabolism in human intestinal microsomes assessed as formation of scutellarein-7-O-glucuronide after 7 mins by HPLC/UV analysis; assay type: ADME, Intestine, Microsome
Liver microsome [12] = experiment: Drug metabolism in rat liver microsomes assessed as formation of scutellarein-7-O-glucuronide after 7 mins by HPLC/UV analysis; assay type: ADME
Liver microsome [13] = experiment: Drug metabolism in human liver microsomes assessed as formation of scutellarein-7-O-glucuronide after 7 mins by HPLC/UV analysis; assay type: ADME
Liver microsome [14] = experiment: Drug metabolism in rat liver microsomes assessed as formation of scutellarein-6-O-glucuronide after 7 mins by HPLC/UV analysis; assay type: ADME
[15] = Drug metabolism in human intestinal microsomes assessed as formation of scutellarein-6-O-glucuronide after 7 mins by HPLC/UV analysis; assay type: ADME, Intestine, Microsome
[16] = substrate: O=C(O)[C@H]1O[C@@H](Oc2c(O)cc3oc(-c4ccc(O)cc4)cc(=O)c3c2O)[C@H](O)[C@@H](O)[C@@H]1O; experiment: Drug uptake assessed as OATP2B1 (unknown origin)-mediated drug transport expressed in HEK293 cells after 7 mins by LC-MS/MS analysis; assay type: ADME, cell-based, Homo sapiens

Vmax/Km [1]: 342 µL/min/mg
Ki [2]: 41.3 µM
Km [3]: 9 µM
Vmax [3]: 17.3 nmol/min/mg
Vmax/Km (Liver microsome [4]): 1361 µL/min/mg
Vmax/Km (Liver microsome [5]): 1368 µL/min/mg
Vmax/Km (Liver microsome [6]): 97.9 µL/min/mg
Vmax/Km (Liver microsome [7]): 577 µL/min/mg
Km (Liver microsome [8]): 16.2 µM
Vmax (Liver microsome [8]): 1.59 nmol/min/mg
Vmax/Km [9]: 1924 µL/min/mg
Ki [10]: 401 µM
Km ([10]; human, microsomes, 7 min): 5.9 µM
Vmax ([10]; human, microsomes, 7 min): 5.45 nmol/min/mg
Vmax/Km [11]: 924 µL/min/mg
Km (Liver microsome [12]): 7.37 µM
Vmax (Liver microsome [12]): 10 nmol/min/mg
Km (Liver microsome [13]): 6.32 µM
Vmax (Liver microsome [13]): 8.64 nmol/min/mg
Km (Liver microsome [14]): 2.86 µM
Vmax (Liver microsome [14]): 1.65 nmol/min/mg
Km [15]: 7.06 µM
Vmax [15]: 2.41 nmol/min/mg
Molecule: O=c1cc(-c2ccc(O)cc2)oc2cc(O)c(O)c(O)c12 [SCUTELLAREIN]

B1: Solute carrier organic anion transporter family member 2B1 (Homo sapiens) (protein)
chain: MGPRIGPAGEVPQVPDKETKATMGTENTPGGKASPDPQDVRPSVFHNIKLFVLCHSLLQLAQLMISGYLKSSISTVEKRFGLSSQTSGLLASFNEVGNTALIVFVSYFGSRVHRPRMIGYGAILVALAGLLMTLPHFISEPYRYDNTSPEDMPQDFKASLCLPTTSAPASAPSNGNCSSYTETQHLSVVGIMFVAQTLLGVGGVPIQPFGISYIDDFAHNSNSPLYLGILFAVTMMGPGLAFGLGSLMLRLYVDINQMPEGGISLTIKDPRWVGAWWLGFLIAAGAVALAAIPYFFFPKEMPKEKRELQFRRKVLAVTDSPARKGKDSPSKQSPGESTKKQDGLVQIAPNLTVIQFIKVFPRVLLQTLRHPIFLLVVLSQVCLSSMAAGMATFLPKFLERQFSITASYANLLIGCLSFPSVIVGIVVGGVLVKRLHLGPVGCGALCLLGMLLCLFFSLPLFFIGCSSHQIAGITHQTSAHPGLELSPSCMEACSCPLDGFNPVCDPSTRVEYITPCHAGCSSWVVQDALDNSQVFYTNCSCVVEGNPVLAGSCDSTCSHLVVPFLLLVSLGSALACLTHTPSFMLILRGVKKEDKTLAVGIQFMFLRILAWMPSPVIHGSAIDTTCVHWALSCGRRAVCRYYNNDLLRNRFIGLQFFFKTGSVICFALVLAVLRQQDKEARTKESRSSPAVEQQLLVSGPGKKPEDSRV
Km [16]: 1.77 µM

Reference: ChEMBL document CHEMBL3526031, “Mechanistic studies on the absorption and disposition of scutellarin in humans: selective OATP2B1-mediated hepatic uptake is a likely key determinant for its unique pharmacokinetic characteristics” (Drug Metab Dispos, 2012)
